The text below walks through data of patent publication US20160000762A1, “IMPROVING COGNITIVE FUNCTION” (THE REGENTS OF THE UNIVERSITY OF CALIFORNIA, priority 2013, published 2016).

The subject of one data set is dendritic spines. Put plainly: Golgi staining, dendritic spines of APP knockout mice. In kind it is in vivo. The note with it: hippocampal CA1 neurons; 30 mg/kg, 2 weeks. An excerpt: Animals. Wild-type C57BL/6J and APP knockout mice (B6.12957-APPtm1Dbo/J) were obtained from Jackson Laboratories (Bar Harbor, Me., USA). CD1 mice were obtained from Vivasource. All animal experiments were approved by the Institutional Animal Care and Use Committees at Georgetown University and Johns Hopkins University. All animals were maintained according to protocols approved by the Animal Welfare and Use Committee at both institutes.
Golgi staining and morphological analysis of dendritic spines. To analyze dendritic spine density and morphology in brain, FD RAPID GOLGISTAIN KIT™ (FD NeuroTechnologies, Ellicott City, Md., USA) was used. Dissected mouse brains were immersed in Solution A and B for 2 weeks in dark conditions at room temperature and transferred into Solution C for 24 h at 4° C. Brains were sliced using a VT1000S Vibratome (Leica, Bannockburn, Ill., USA) at 150 μm thickness. Dendritic images were acquired by Axioplan 2 (Zeiss, Oberkochen, Germany) under brightfield microscopy. Spine width, length, and linear density of cortical layers II/III and CA1 of hippocampus were measured using Scion image software (Scion Corporation, Frederick, Md., USA). Images were coded, and dendritic spines counted in a blinded manner. Spines from 0.2 to 2 μm in length were included for analysis. All morphological analysis was done blind to experimental conditions. […]

In another data set the test system is Ras. The data set can be described thus: GST-Raf1-RBD pulldown of active Ras, primary cortical neurons. In kind it is cell-based. The conditions noted are these: 5 μM. As for the experimental part: GST-pull-down assay. To measure levels of active Ras, brain lysate homogenized with Ral buffer (25 mM Tris-HCl, pH 7.4, 250 mM NaCl, 0.5% NP40, 1.25 mM MgCl2, and 5% glycerol) from APP transgenic, APP knockout, or wild-type mice was incubated with GST-Raf-RBD purified protein coupled with GLUTATHIONE SEPHAROSE™ (Amersham) overnight at 4° C. After 24 hours, pellets were washed with Ral buffer and western blotting was conducted with anti-Ras.
We next investigated the molecular mechanism by which BTA-EG4 may alter dendritic spine formation. Ras, a small GTPase, is involved in dendritic spine formation and synaptic delivery of AMPA receptors (Zhu et al., 2002; Lee et al., 2011). Moreover, abnormal Ras signaling is associated with neurodegenerative disease, causing cognitive impairments and learning deficits (Stornetta and Zhu, 2011). Thus, we initially investigated the effect of BTA-EG4 on Ras signaling by treating primary hippocampal neurons with BTA-EG4 (5 μM) or control for 24 hrs. […] Further, levels of active Ras were elevated following BTA-EG4 treatment (5 μM) in primary cortical neurons (FIG. 7C) and following BTA-EG4 treatment (30 mg/kg) in wild-type mice (FIG. 7D). We also examined whether BTA-EG4 can alter the activity of downstream Ras signaling proteins, including p-ERK and p-CREB.

Data set [1] relates to insulin-degrading enzyme (IDE), neprilysin (NPE). The data set can be described thus: Levels of Aβ degradation enzymes (data not shown).
Data set [2] is described as follows: Cerebrovascular permeability and pharmacokinetic analysis of BTA-EG4 in mice. It counts as in vivo, male CD-1 mice. The conditions noted are these: 10 mg/kg i.p. As for the experimental part: Cerebrovascular permeability and pharmacokinetic analysis of BTA-EG4 in wild-type mice. The partitioning of BTA-EG4 between plasma and brain was studied in male CD-1 mice. The mice were dosed with 10 mg/kg (in 10% DMSO/90% PBS) intraparitoneally (IP, n=2 per time point) and the concentration of BTA-EG4 in the plasma and brain was measured over time. Blood was collected via cardiac puncture and was pooled in EDTA tubes, centrifuged, and the plasma isolated. The brain was collected from each mouse, snap frozen, and homogenized in 2 mL PBS. The concentration of BTA-EG4 in the plasma and brain at each time point was determined by LC/MS/MS and the concentrations of BTA-EG4 in the plasma and brain were plotted as a function of time. Pharmacokinetic parameters for the plasma and brain profile of BTA-EG4 were also calculated: half-life for BTA-EG4 in the plasma and brain (t1/2), the maximum concentration (Cmax) of BTA-EG4 in the plasma and brain, the area under the concentration-time curve (AUC), the brain-to-plasma ratio (BB), and the logarithmic brain-to-plasma ratio (Log BB).

A further data set deals with T1, APP (Rattus norvegicus, UniProt P08592).
T1 construct: BTA-EG4 increased endogenous cell surface APP levels in primary cortical neurons; endogenous in cells; host or cells: primary cortical neurons
The data set can be described thus: Cell surface biotinylation, primary cortical neurons. It counts as cell-based. The conditions noted are these: 5 μM, 24 h. As for the experimental part: Cell surface biotinylation. COS7 cells were transiently transfected with APP for 24 hr in OPTI-MEM® containing 10% fetal bovine serum, and then treated with BTA-EG4 or control for 24 hr. After 24 hr, surface proteins were biotin labeled, immobilized with NeutrAvidin™ Gel and incubated 1 h with SDS-PAGE sample buffer, including 50 mM DTT, as described previously (Minami et al., 2010). Eluates were analyzed for APP by immunoblotting.
It is well known that the majority of a-secretase activity occurs on the cell surface, while β- and γ-secretase activity occurs primarily in the early and late endosomes (Huse et al., 2000; Reiss et al., 2006). Thus, if APP is present at the cell's surface, it is preferentially cleaved by α-secretase, resulting in decreased Aβ production. Therefore, we examined whether BTA-EG4 regulates cell surface expression of APP. To test this initially, COS7 cells were transfected with human APP and treated with BTA-EG4 (5 μM) or control (10% DMSO) for 24 h. […] Furthermore, BTA-EG4 increased endogenous cell surface APP levels in primary cortical neurons following 24 h of BTA-EG4 (5 μM) treatment compared with control (10% DMSO) treatment (FIG. 1I). In an alternative approach to examine the effect of BTA-EG4 on cell surface APP expression, we conducted live cell-surface immunostaining in primary hippocampal neurons.

T1 sequence (P08592 18-770): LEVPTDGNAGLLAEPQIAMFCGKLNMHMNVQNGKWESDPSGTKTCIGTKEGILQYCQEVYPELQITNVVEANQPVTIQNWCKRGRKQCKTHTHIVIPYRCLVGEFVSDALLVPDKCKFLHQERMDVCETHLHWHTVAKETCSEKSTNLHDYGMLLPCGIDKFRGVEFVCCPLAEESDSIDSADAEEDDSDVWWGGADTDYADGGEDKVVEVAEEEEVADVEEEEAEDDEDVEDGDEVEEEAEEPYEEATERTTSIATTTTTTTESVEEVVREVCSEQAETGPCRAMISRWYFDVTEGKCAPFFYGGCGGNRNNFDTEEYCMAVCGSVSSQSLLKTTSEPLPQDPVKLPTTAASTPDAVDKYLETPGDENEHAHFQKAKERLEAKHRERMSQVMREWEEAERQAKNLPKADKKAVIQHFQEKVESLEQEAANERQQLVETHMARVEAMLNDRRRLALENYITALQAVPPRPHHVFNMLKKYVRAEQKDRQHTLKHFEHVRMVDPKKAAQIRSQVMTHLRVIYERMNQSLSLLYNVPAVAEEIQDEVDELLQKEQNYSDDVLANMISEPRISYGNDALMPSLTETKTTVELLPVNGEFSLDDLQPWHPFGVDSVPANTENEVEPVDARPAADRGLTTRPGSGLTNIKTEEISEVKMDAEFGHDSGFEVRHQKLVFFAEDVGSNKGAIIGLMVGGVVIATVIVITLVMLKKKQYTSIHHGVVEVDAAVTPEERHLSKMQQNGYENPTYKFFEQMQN

For the substance BTA-EG4, in the data set on dendritic spines, the dendritic spine density entry is given as “did not find a statistically significant increase”. Further, the “levels of active Ras” value with Ras is recorded as “elevated”. Moreover, the “levels of Aβ degradation enzymes (IDE, NPE)” value in data set [1] is “did not alter”. In data set [2], the “blood brain barrier crossing” value is recorded as “readily crosses the blood brain barrier”. In data set [2] (n=2 per time point, estimated value), the “logarithmic brain-to-plasma ratio (log BB)” value is reported as 0.43. For the same substance, the “endogenous cell surface APP levels” value at APP is on record as “increased”.
